Legend:
Assay type in all cases: cell-based, human
OVCAR-3 = assay: NCI screening panel, OVCAR-3 (Ovarian Cancer)
Experimental: (§1) Representative compounds of Formula I were screened using the National Cancer Institute (NCI) screening panel, which consists of a panel of human tumor cell lines, representing leukemia, melanoma, and cancers of the lung, colon, ovary, breast, prostate and renal system.
(§2) After 24 h, two plates of each cell line are fixed in situ with TCA, to represent a measurement of the cell population for each cell line at the time of drug addition (Tz). Experimental drugs are solubilised in dimethyl sulfoxide at 400-fold the desired final maximum test concentration and stored frozen prior to use. At the time of drug addition, an aliquot of frozen concentrate is thawed and diluted to twice the desired final maximum test concentration with complete medium containing 50 μg/mL gentamicin. Additional four, 10-fold or ½ log serial dilutions are made to provide a total of five drug concentrations plus control. Aliquots of 100 μl of these different drug dilutions are added to the appropriate microtiter wells already containing 100 μl of medium, resulting in the required final drug concentrations.
(§3) Following drug addition, the plates are incubated for an additional 48 h at 37° C., 5% CO2, 95% air, and 100% relative humidity. For adherent cells, the assay is terminated by the addition of cold TCA (trichloroacetic acid). Cells are fixed in situ by the gentle addition of 50 μl of cold 50% (w/v) TCA (final concentration, 10% TCA) and incubated for 60 minutes at 4° C. The supernatant is discarded, and the plates are washed five times with tap water and air dried. Sulforhodamine B (SRB) solution (100 μl) at 0.4% (w/v) in 1% acetic acid is added to each well, and plates are incubated for 10 minutes at room temperature. After staining, unbound dye is removed by washing five times with 1% acetic acid and the plates are air dried. Bound stain is subsequently solubilised with 10 mM trizma base, and the absorbance is read on an automated plate reader at a wavelength of 515 nm. For suspension cells, the methodology is the same except that the assay is terminated by fixing settled cells at the bottom of the wells by gently adding 50 μl of 80% TCA (final concentration, 16% TCA). Using the seven absorbance measurements [time zero, (Tz), control growth, (C), and test growth in the presence of drug at the five concentration levels (Ti)], the percentage growth is calculated at each of the drug concentrations levels. Percentage growth inhibition is calculated as: [(Ti−Tz)/(C−Tz)]×100 for concentrations for which Ti>/=Tz and [(Ti−Tz)/Tz]×100 for concentrations for which Ti<Tz.
(§4) Three dose response parameters are calculated for each experimental agent. Growth inhibition of 50% (GI50) is calculated from [(Ti−Tz)/(C−Tz)]×100=50, which is the drug concentration resulting in a 50% reduction in the net protein increase (as measured by SRB staining) in control cells during the drug incubation. The drug concentration resulting in total growth inhibition (TGI) is calculated from Ti=Tz. The LC50 (concentration of drug resulting in a 50% reduction in the measured protein at the end of the drug treatment as compared to that at the beginning) indicating a net loss of cells following treatment is calculated from [(Ti−Tz)/Tz]×100=−50. Values are calculated for each of these three parameters if the level of activity is reached. However, if the effect is not reached or is exceeded, the value for that parameter is expressed as greater or less than the maximum or minimum concentration tested.

MALME-3M = assay: NCI screening panel, MALME-3M (Melanoma)
Experimental: as §1, §2, §3, §4

ACHN = assay: NCI screening panel, ACHN (Renal Cancer)
Experimental: as §1, §2, §3, §4

MOLT-4 = assay: NCI screening panel, MOLT-4 (Leukemia)
Experimental: as §1, §2, §3, §4

SF-295 = assay: NCI screening panel, SF-295 (CNS Cancer)
Experimental: as §1, §2, §3, §4

HCT-116 = assay: NCI screening panel, HCT-116 (Colon Cancer)
Experimental: as §1, §2, §3, §4

HCC-2998 = assay: NCI screening panel, HCC-2998 (Colon Cancer)
Experimental: as §1, §2, §3, §4

SK-MEL-28 = assay: NCI screening panel, SK-MEL-28 (Melanoma)
Experimental: as §1, §2, §3, §4

K-562 = assay: NCI screening panel, K-562 (Leukemia)
Experimental: as §1, §2, §3, §4

SK-OV-3 = assay: NCI screening panel, SK-OV-3 (Ovarian Cancer)
Experimental: as §1, §2, §3, §4

MDA-MB-231/ATCC = assay: NCI screening panel, MDA-MB-231/ATCC (Breast Cancer)
Experimental: as §1, §2, §3, §4

T-47D = assay: NCI screening panel, T-47D (Breast Cancer)
Experimental: as §1, §2, §3, §4

Compound | Log10GI50 (OVCAR-3) | Log10LC50 (OVCAR-3) | Log10TGI50 (OVCAR-3) | Log10GI50 (ACHN) | Log10LC50 (ACHN) | Log10TGI50 (ACHN) | Log10GI50 (MOLT-4) | Log10TGI50 (MOLT-4) | Log10GI50 (SF-295) | Log10LC50 (SF-295) | Log10TGI50 (SF-295) | Log10GI50 (HCT-116) | Log10LC50 (HCT-116) | Log10TGI50 (HCT-116) | Log10GI50 (HCC-2998) | Log10LC50 (HCC-2998) | Log10TGI50 (HCC-2998) | Log10GI50 (SK-MEL-28) | Log10LC50 (SK-MEL-28) | Log10TGI50 (SK-MEL-28) | also measured
CC(C)C[C@H](NC(=O)[C@H](COC(F)F)NC(=O)CN1CCOCC1)C(=O)N[C@@H](COC(F)F)C(=O)N[C@@H](CC(C)C)C(=O)[C@@]1(C)CO1 [Example 1, (2S)—N-[(1S)-1-(difluoromethoxymethyl)-2-[[(1S)-3-methyl-1-[(2R)-2-methyloxirane-2-carbonyl]butyl]amino]-2-oxo-ethyl]-2-[[(2S)-3-(difluoromethoxy)-2-[(2-morpholinoacetyl)amino]propanoyl]amino]-4-methyl-pentanamide] | −7.69 | −6.91 | −7.34 | −6.34 | >−4.00 | >−4.00 | −7.57 | −6.98 | −7.51 | −6.09 | −6.88 | -8.00 | −6.33 | −7.34 | −7.74 | −7.16 | −7.45 | −7.56 | >−4.00 | −6.97 | Log10GI50 (MALME-3M): −7.39; Log10LC50 (MALME-3M): >−4.00; Log10TGI50 (MALME-3M): −6.49; Log10LC50 (MOLT-4): >−4.00; Log10GI50 (K-562): −7.38; Log10LC50 (K-562): >−4.00; Log10TGI50 (K-562): >−4.00; Log10GI50 (SK-OV-3): −7.15; Log10TGI50 (SK-OV-3): −6.36; Log10GI50 (MDA-MB-231/ATCC): −7.52; Log10LC50 (MDA-MB-231/ATCC): >−4.00; Log10TGI50 (MDA-MB-231/ATCC): −6.76; Log10GI50 (T-47D): −7.94; Log10LC50 (T-47D): −7.11; Log10TGI50 (T-47D): −7.53
CC(C)C[C@H](NC(=O)[C@H](COC(F)F)NC(=O)CN1CCOCC1)C(=O)N[C@@H](Cc1ccccc1)C(=O)N[C@@H](CC(C)C)C(=O)[C@@]1(C)CO1 [Example 2, (2S)-N-[(1S)-1-benzyl-2-[[(1S)-3-methyl-1-[(2R)-2-methyloxirane-2-carbonyl]butyl]-amino]-2-oxo-ethyl]-2-[[(2S)-3-(difluoromethoxy)-2-[(2-morpholinoacetyl)amino]propanoyl]amino]-4-methyl-pentanamide] | −7.80 | −6.64 | −7.34 | −6.71 | >−4.00 | >−4.00 | <-8.00 | −5.79 | −7.80 | −6.42 | −7.28 | <-8.00 | −6.97 | −7.72 | −7.77 | −7.15 | −7.46 | −7.50 | −5.23 | −6.71 | Log10LC50 (MOLT-4): >−4.00; Log10GI50 (K-562): −7.49; Log10LC50 (K-562): >−4.00; Log10TGI50 (K-562): >−4.00; Log10GI50 (SK-OV-3): −7.15; Log10LC50 (SK-OV-3): >−4.00; Log10TGI50 (SK-OV-3): −6.21; Log10GI50 (MDA-MB-231/ATCC): −7.63; Log10LC50 (MDA-MB-231/ATCC): −4.37; Log10TGI50 (MDA-MB-231/ATCC): −6.79; Log10GI50 (T-47D): <−8.00; Log10TGI50 (T-47D): −7.55
CC(C)C[C@H](NC(=O)[C@H](COC(F)F)NC(=O)CN1CCOCC1)C(=O)N[C@@H](Cc1ccccc1)C(=O)N[C@@H](Cc1ccccc1)C(=O)[C@@]1(C)CO1 [Example 3, (2S)-N-[(1S)-1-benzyl-2-[[(1S)-1-benzyl-2-[(2R)-2-methyloxiran-2-yl]-2-oxo-ethyl]amino]-2-oxo-ethyl]-2-[[(2S)-3-(difluoromethoxy)-2-[(2-morpholinoacetyl)-amino]propanoyl]amino]-4-methyl-pentan-amide] | <−8.00 | −6.36 | −7.25 | −7.13 | >−4.00 | >−4.00 | <−8.00 | >−4.00 | −7.34 | −6.24 | −6.75 | <−8.00 | >−4.00 | −7.34 | −7.78 | −7.18 | −7.48 | −7.65 | >−4.00 | −6.27 | Log10GI50 (MALME-3M): −7.65; Log10LC50 (MALME-3M): >−4.00; Log10TGI50 (MALME-3M): −7.07; Log10GI50 (K-562): −7.77; Log10LC50 (K-562): >−4.00; Log10TGI50 (K-562): >−4.00; Log10GI50 (SK-OV-3): −7.26; Log10LC50 (SK-OV-3): >−4.00; Log10TGI50 (SK-OV-3): −6.16; Log10GI50 (MDA-MB-231/ATCC): <−8.00; Log10LC50 (MDA-MB-231/ATCC): −4.81; Log10TGI50 (MDA-MB-231/ATCC): −7.08; Log10GI50 (T-47D): <−8.00; Log10TGI50 (T-47D): −7.59
CC(C)C[C@H](NC(=O)[C@H](COC(F)F)NC(=O)CN1CCOCC1)C(=O)N[C@@H](COC(F)F)C(=O)N[C@@H](Cc1ccccc1)C(=O)[C@@]1(C)CO1 [Example 4, (2S)-N-[(1S)-2-[[(1S)-1-benzyl-2-[(2R)-2-methyloxiran-2-yl]-2-oxo-ethyl]amino]-1-(difluoromethoxymethyl)-2-oxo-ethyl]-2-[[(2S)-3-(difluoromethoxy)-2-[(2-mor-pholinoacetyl)amino]propanoyl]amino]-4 methyl-pentanamide] | −7.43 | −6.11 | −6.89 | −6.32 | >−4.00 | >−4.00 | −7.82 | −7.07 | −7.48 | −5.22 | −6.60 | −7.70 | −4.57 | −6.98 | −7.29 | −6.30 | −6.75 | −7.35 | −4.79 | −6.62 | Log10GI50 (MALME-3M): −7.49; Log10LC50 (MALME-3M): >−4.00; Log10TGI50 (MALME-3M): −6.38; Log10LC50 (MOLT-4): >−4.00; Log10GI50 (K-562): −7.26; Log10LC50 (K-562): >−4.00; Log10TGI50 (K-562): >−4.00; Log10GI50 (SK-OV-3): −6.84; Log10LC50 (SK-OV-3): >−4.00; Log10TGI50 (SK-OV-3): −6.02; Log10GI50 (MDA-MB-231/ATCC): −7.45; Log10LC50 (MDA-MB-231/ATCC): −4.14; Log10TGI50 (MDA-MB-231/ATCC): −6.37; Log10GI50 (T-47D): −7.68; Log10TGI50 (T-47D): −7.08

From patent US20150218212A1, “FLUORINATED EPOXYKETONE-BASED TETRAPEPTIDE COMPOUNDS AND USES THEREOF AS PROTEASOME INHIBITORS” (FLUORINOV PHARMA INC., priority 2012, published 2015)
